Positions count from the first letter of the chain named. Counter-ions that a name gives are not always drawn. Like-named read-outs stand apart in the source and are kept apart here.
Legend:
RET(KD: 658-1114 G810R) = biological target: T1, RET(KD: 658-1114 G810R) (Homo sapiens, UniProt P07949, G810R); test: HiBiT-Degradation, RET G810R degradation assay (Nano-Glo HiBiT Lytic), 293T.165 cells; format: cell-based; conditions: for Emax / DC50: 6.0 hours
T1 construct: 658-1114; expressed in transfected cells; host or cells: 293T.165 (293T cells, generated in-house)
T1 sequence (P07949 658-1114 G810R): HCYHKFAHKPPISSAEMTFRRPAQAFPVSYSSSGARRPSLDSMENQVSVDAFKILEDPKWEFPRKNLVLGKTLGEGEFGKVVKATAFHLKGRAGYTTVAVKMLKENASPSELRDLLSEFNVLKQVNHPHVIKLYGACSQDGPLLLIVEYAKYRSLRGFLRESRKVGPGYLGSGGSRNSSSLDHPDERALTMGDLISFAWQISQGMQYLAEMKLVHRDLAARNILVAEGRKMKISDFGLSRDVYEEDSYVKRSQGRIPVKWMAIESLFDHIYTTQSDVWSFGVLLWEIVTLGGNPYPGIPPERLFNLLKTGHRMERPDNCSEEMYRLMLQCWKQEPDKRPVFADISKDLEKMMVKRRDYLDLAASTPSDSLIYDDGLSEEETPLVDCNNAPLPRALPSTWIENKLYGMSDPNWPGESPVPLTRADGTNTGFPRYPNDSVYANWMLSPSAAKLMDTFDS
In short: (§1)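 HEK293T lines expressing HiBiT-tagged RET kinase domain, wild-type (293T.144) or G810R (293T.165), treated 6 h in duplicate, 11-point half-log series from 10 μM top. Lytic HiBiT luminescence read; DC50 and Emax (% protein remaining) from dose-response curves.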

RET (658-1114) = biological target: T2, RET (658-1114) (Homo sapiens, UniProt P07949); test: HiBiT-Degradation, RET wild-type degradation assay (Nano-Glo HiBiT Lytic), 293T.144 cells; format: cell-based; conditions: for Emax / DC50: 6.0 hours
T2 construct: 658-1114; expressed in transfected cells; host or cells: 293T.144 (293T cells, generated in-house)
T2 sequence (P07949 658-1114): T1 sequence (P07949 658-1114 G810R) with R153G
In short: as §1

[1] = % remaining protein, read-out: 293T.165 RET(KD: 658-1114 G810R) 6.0 hours (Emax)
[2] = half-maximal degradation concentration, read-out: 293T.165 RET(KD: 658-1114 G810R) 6.0 hours (DC50)
[3] = % remaining protein, read-out: 293T.144 RET (658-1114) 6.0 hours (Emax)
[4] = half-maximal degradation concentration, read-out: 293T.144 RET (658-1114) 6.0 hours (DC50)
[5] = HiBiT-Degradation, read-out: 293T.165 RET(KD: 658-1114 G810R) 6.0 hours (DC50)
[6] = HiBiT-Degradation, read-out: 293T.144 RET (658-1114) 6.0 hours (DC50)
[7] = HiBiT-Degradation, read-out: 293T.144 RET (658-1114) 6.0 hours (Emax)

Row | Structure (SMILES) | 293T.165 RET(KD: 658-1114 G810R) 6.0 hours (IP) [nM] (RET(KD: 658-1114 G810R)) | Emax (RET(KD: 658-1114 G810R); [1]) [%] | DC50 (RET(KD: 658-1114 G810R); [2]) [µM] | 293T.144 RET (658-1114) 6.0 hours (IP) [nM] (RET (658-1114)) | Emax (RET (658-1114); [3]) [%] | DC50 (RET (658-1114); [4]) [µM] | 293T.165 RET(KD: 658-1114 G810R) 6.0 hours (Emax) (RET(KD: 658-1114 G810R); HiBiT-Degradation) | 293T.165 RET(KD: 658-1114 G810R) 6.0 hours (IP) [nM] (RET(KD: 658-1114 G810R); HiBiT-Degradation) | DC50 (RET(KD: 658-1114 G810R); [5]) [µM] | 293T.144 RET (658-1114) 6.0 hours (IP) [nM] (RET (658-1114); HiBiT-Degradation) | DC50 (RET (658-1114); [6]) [µM] | Emax (RET (658-1114); [7]) [%] | HiBiT-Degradation 293T.165 RET(KD: 658-1114 G810R) 6.0 hours (IP) [nM] (RET(KD: 658-1114 G810R); RET G810R) | DC50 (RET(KD: 658-1114 G810R); RET G810R, read-out: HiBiT-Degradation 293T.165 RET(KD: 658-1114 G810R) 6.0 hours (DC50)) [µM] | Emax (RET(KD: 658-1114 G810R); RET G810R, read-out: HiBiT-Degradation 293T.165 RET(KD: 658-1114 G810R) 6.0 hours (Emax)) [%] | HiBiT-Degradation 293T.144 RET (658-1114) 6.0 hours (IP) [nM] (RET (658-1114); RET wild-type) | DC50 (RET (658-1114); RET wild-type, read-out: HiBiT-Degradation 293T.144 RET (658-1114) 6.0 hours (DC50)) [µM] | Emax (RET (658-1114); RET wild-type, read-out: HiBiT-Degradation 293T.144 RET (658-1114) 6.0 hours (Emax)) [%]
1 | CCC1(C(=O)NC(C)(C)C)CCN(c2ccc(-c3nc(-c4cnn([C@H]5CC[C@H](N6CCN(c7c(F)cc(N[C@@H]8CCC(=O)NC8=O)cc7F)CC6)CC5)c4)cn4ncc(C#N)c34)cn2)CC1 (racemic) [Compound 219, N-tert-butyl-1-[5-[3-cyano-6-[1-[4-[4-[2,6-difluoro-4-[[rac-(3R)-2,6-dioxo-3-piperidyl]amino]phenyl]piperazin-1-yl]cyclohexyl]pyrazol-4-yl]pyrazolo[1,5-a]pyrazin-4-yl]-2-pyridyl]-4-ethyl-piperidine-4-carboxamide] | +++ (<100 nM = +++) | < 30 | < 0.05 | ++++ (<50 nM = ++++) | < 30 | < 0.05 |  |  |  |  |  |  |  |  |  |  |  | 
2 | CCC1(NC(=O)c2ncccc2Cl)CCN(c2ccc(-c3nc(-c4cnn([C@H]5CC[C@@H](N6CCN(c7ccc8c(N9CCC(=O)NC9=O)nn(C)c8c7F)CC6)CC5)c4)cn4ncc(C#N)c34)cn2)CC1 (single isomer, unassigned) [Compound 170, 3-Chloro-N-(1-(5-(3-cyano-6-(1-((1s, 4s)-4-(4-(3-(2,4-dioxotetrahydropyrimidin-1(2H)-yl)-7-fluoro-1-methyl-1H-indazol-6-yl)piperazin-1-yl)cyclohexyl)-1H-pyrazol-4-yl)pyrazolo[1,5-a]pyrazin-4-yl)pyridin-2-yl)-4-ethylpiperidin-4-yl)picolinamide] | ++++ (<50 nM = ++++) | < 30 | < 0.1 | ++++ (<50 nM = ++++) | < 30 | < 0.05 |  |  |  |  |  |  |  |  |  |  |  | 
3 | N#Cc1cnn2cc(-c3cnn(C4CCN(C(=O)CN5CCC(c6ccc(NC7CCC(=O)NC7=O)cc6)CC5)CC4)c3)cc(-c3ccc(N4CCN(C(=O)Cc5ccc(F)cn5)CC4)nc3)c12 (stereo not drawn) [Compound 15, 6-[1-[1-[2-[4-[4-[(2,6-dioxo-3-piperidyl)amino]phenyl]-1-piperidyl]acetyl]-4-piperidyl]pyrazol-4-yl]-4-[6-[4-[2-(5-fluoro-2-pyridyl)acetyl]piperazin-1-yl]-3-pyridyl]pyrazolo[1,5-a]pyridine-3-carbonitrile formic acid salt] |  | < 30 | < 0.1 |  |  |  | ++++ (< 30% = ++++) | ++++ (< 50 nM = ++++) | < 0.1 | ++++ (< 50 nM = ++++) | < 0.05 | < 30 |  |  |  |  |  | 
4 | CCC1(C(=O)NC(C)C)CCN(c2ccc(-c3cc(-c4cnn([C@H]5CC[C@H](N6CCC(c7ccc(N[C@@H]8CCC(=O)NC8=O)cc7F)CC6)CC5)c4)cn4ncc(C#N)c34)cn2)CC1 (single isomer, unassigned) [Compound 195] | ++++ (<50 nM = ++++) | < 30 | < 0.05 | ++++ (<50 nM = ++++) | < 30 | < 0.05 |  |  |  |  |  |  |  |  |  |  |  | 
5 | CC(C)NC(=O)C1(C)CCN(c2ccc(-c3cc(-c4cnn([C@H]5CC[C@H](CCN6CCC(c7ccc8c(N9CCC(=O)NC9=O)nn(C)c8c7)CC6)CC5)c4)cn4ncc(C#N)c34)cn2)CC1 [Compound 86, 1-[5-[3-cyano-6-[1-[(1r,4r)-4-[2-[4-[3-(2,4-dioxohexahydropyrimidin-1-yl)-1-methyl-indazol-6-1]-1-piperidyl]ethyl]cyclohexyl]pyrazol-4-yl]pyrazolo[1,5-a]pyridin-4-yl]-2-pyridyl]-N-isopropyl-4-methyl-piperidine-4-carboxamide] |  | < 30 | < 0.1 |  |  |  |  |  |  |  |  |  | ++++ (< 50 nM = ++++) | < 0.1 | < 30 | ++++ (< 50 nM = ++++) | < 0.05 | < 30
6 | N#Cc1cnn2cc(-c3cnn(C4CCN(C(=O)CN5CCC(c6ccc(NC7CCC(=O)NC7=O)cc6F)CC5)CC4)c3)cc(-c3ccc(N4CC5CCC(C4)N5Cc4ccccn4)nc3)c12 (stereo not drawn) [Compound 62, 6-[1-[1-[2-[4-[4-[(2,6-dioxo-3-piperidyl)amino]-2-fluoro-phenyl]-1-piperidyl]acetyl]-4-piperidyl]pyrazol-4-yl]-4-[6-[8-(2-pyridylmethyl)-3,8-diazabicyclo[3.2.1]octan-3-yl]-3-pyridyl]pyrazolo[1,5-a]pyridine-3-carbonitrile] |  | < 50 | < 0.1 |  |  |  | +++ (<50% = +++) | ++++ (< 50 nM = ++++) | < 0.1 | ++++ (< 50 nM = ++++) | < 0.05 | < 30 |  |  |  |  |  | 
7 | CCC1(C(=O)NC(C)C)CCN(c2ccc(-c3nc(-c4cnn([C@H]5CC[C@H](N6CCC(c7ccc(N[C@H]8CCC(=O)NC8=O)cc7F)CC6)CC5)c4)cn4ncc(C#N)c34)cn2)CC1 (single isomer, unassigned) [Compound 123] | ++++ (<50 nM = ++++) | < 30 | < 0.05 | ++++ (<50 nM = ++++) | < 30 | < 0.05 |  |  |  |  |  |  |  |  |  |  |  | 
8 | COc1cc(N2CCN([C@H]3CC[C@H](n4cc(-c5cn6ncc(C#N)c6c(-c6ccc(N7C[C@@H]8[C@@H](CNC(=O)c9ncccc9Cl)[C@@H]8C7)nc6)n5)cn4)CC3)CC2)c(F)cc1NC1CCC(=O)NC1=O (stereo partly drawn) [Compound 168, 3-chloro-N-[[(1S,5R)-3-[5-[3-cyano-6-[1-[4-[4-[4-[(2,6-dioxo-3-piperidyl)amino]-2-fluoro-5-methoxy-phenyl]piperazin-1-yl]cyclohexyl]pyrazol-4-yl]pyrazolo[1,5-a]pyrazin-4-yl]-2-pyridyl]-3-azabicyclo[3.1.0]hexan-6-yl]methyl]pyridine-2-carboxamide] | ++++ (<50 nM = ++++) | < 30 | < 0.1 | ++++ (<50 nM = ++++) | < 30 | < 0.05 |  |  |  |  |  |  |  |  |  |  |  | 
9 | COc1ccc(NC2CCN(c3ccc(-c4nc(-c5cnn([C@H]6CC[C@@H](N7CCN(c8c(F)cc(NC9CCC(=O)NC9=O)cc8F)CC7)CC6)c5)cn5ncc(C#N)c45)cn3)CC2)cn1 (single isomer, unassigned) [Compound 203, 6-(1-((1s, 4s)-4-(4-(4-((2,6-Dioxopiperidin-3-yl)amino)-2,6-difluorophenyl)piperazin-1-yl)cyclohexyl)-1H-pyrazol-4-yl)-4-(6-(4-((6-methoxypyridin-3-yl)amino)piperidin-1-yl)pyridin-3-yl)pyrazolo[1,5-a]pyrazine-3-carbonitrile] | ++++ (<50 nM = ++++) | < 30 | < 0.05 | ++++ (<50 nM = ++++) | < 30 | < 0.05 |  |  |  |  |  |  |  |  |  |  |  | 
